Assay results reported in ChEMBL document CHEMBL1158127, “Bioactive compounds from the gorgonian Briareum polyanthes. Correction of the structures of four asbestinane-type diterpenes” (J Nat Prod, 2006).
In brackets after ≈: the same amount, converted by molar mass. Activity calls are given as the source filed them. No cut-off for these calls is given here.

Columns and labels:
[1] = system: Influenza A virus; experiment: Antiviral activity against Influenza A virus H1N1; format: functional, organism-based
[2] = system: West Nile virus; experiment: Antiviral activity against West Nile virus; format: functional, organism-based
[3] = system: Venezuelan equine encephalitis virus; experiment: Antiviral activity against Venezuelan equine encephalomyelitis virus; format: functional, organism-based
[4] = system: Hepatitis B virus; experiment: Antiviral activity against Hepatitis B virus; format: functional, organism-based
[5] = system: dengue virus type 2; experiment: Antiviral activity against Dengue virus type 2; format: functional, organism-based
[6] = system: Respiratory syncytial virus; experiment: Antiviral activity against RSV type A; format: functional, organism-based
[7] = system: Hepatitis C virus; experiment: Antiviral activity against HCV; format: functional, organism-based; conditions: Hepacivirus hominis
[8] = system: Plasmodium falciparum; experiment: Antiplasmodial activity against chloroquine-resistant Plasmodium falciparum W2; format: functional, organism-based
[9] = system: Yellow fever virus; experiment: Antiviral activity against yellow fever virus; format: functional, organism-based
[10] = system: Mycobacterium tuberculosis; experiment: Antituberculosis activity against Mycobacterium tuberculosis H37Rv at 128 ug/mL; format: functional
[11] = system: Influenza A virus H3N2; experiment: Antiviral activity against Influenza A virus H3N2; format: functional, organism-based
[12] = system: Influenza B virus; experiment: Antiviral activity against Influenza B virus; format: functional, organism-based
[13] = system: CCRF-CEM; experiment: Cytotoxicity against human CCRF-CEM cells; format: functional, cell-based
[14] = system: Human gammaherpesvirus 4; experiment: Antiviral activity against Epstein-Barr virus; format: functional, organism-based

SMILES | Activity [1] | Activity [2] | Activity [3] | Activity [4] | Activity [5] | Activity [6] | Activity [7] | IC50 [8] | Activity [9] | Activity [10] | Activity [11] | Activity [12] | IC50 [13] | IC50 [14]
CC(=O)O[C@H]1[C@H]2C3/C=C(/C)[C@H](O)CC[C@]4(C)OC[C@H](C)C(C[C@H]1C)[C@@H]2C4O3 (stereo partly drawn) | inactive | inactive | inactive | inactive | inactive | inactive | inactive | 18 µg/mL (≈ 47.6 µM) | inactive | inactive | inactive | inactive | – | –
CC(=O)O[C@H]1[C@H]2C3C[C@](C)(O)C(=O)CC[C@]4(C)OC[C@H](C)C(C[C@H]1C)[C@@H]2C4O3 (stereo partly drawn) | – | – | – | – | – | – | – | 18 µg/mL (≈ 45.6 µM) | – | – | – | – | – | –
CO[C@@H]1CC[C@]2(C)OC[C@H](C)C3C[C@@H](C)[C@@H](OC(C)=O)[C@H]4C(C[C@@]1(C)O)OC2[C@@H]34 (stereo partly drawn) | – | – | – | – | – | – | – | ≥ 50 µg/mL | – | – | – | – | – | –
C=C1CC2OC3[C@H]4C(C[C@@H](C)[C@@H](OC(C)=O)[C@@H]24)[C@@H](C)CO[C@@]3(C)CC[C@H]1OO (stereo partly drawn) | inactive | inactive | inactive | inactive | inactive | inactive | inactive | 13 µg/mL (≈ 33 µM) | inactive | inactive | inactive | inactive | – | –
C=C1CC2OC3[C@H]4C(C[C@@H](C)[C@@H](OC(C)=O)[C@@H]24)[C@@H](C)CO[C@@]3(C)CC[C@H]1O (stereo partly drawn) | inactive | inactive | inactive | inactive | inactive | inactive | inactive | 13 µg/mL (≈ 34.3 µM) | inactive | inactive | inactive | inactive | – | –
CC(=O)O[C@H]1[C@H]2C3CC(=O)CCC[C@]4(C)OC[C@H](C)C(C[C@H]1C)[C@@H]2C4O3 (stereo partly drawn) [NOR-ASBESTININ A] | inactive | inactive | inactive | inactive | inactive | inactive | inactive | 14 µg/mL (≈ 38.4 µM) | inactive | inactive | inactive | inactive | – | –
C=C1CC2OC3[C@H]4C(C[C@@H](C)[C@@H](OC(C)=O)[C@@H]24)[C@@H](C)CO[C@@]3(C)CC[C@@H]1O (stereo partly drawn) | inactive | inactive | inactive | inactive | inactive | inactive | inactive | 17 µg/mL (≈ 44.9 µM) | inactive | inactive | inactive | inactive | – | –
CCCC(=O)O[C@]1(C)CCC2[C@@H]3C4OC(C/C(C)=C\CC[C@]4(C)OC(=O)[C@@H]2C)[C@@H]31 (stereo partly drawn) [BRIARELLIN R] | inactive | inactive | – | – | – | – | inactive | 15 µg/mL (≈ 37.1 µM) | – | 91% | inactive | inactive | 8.9 µg/mL (≈ 22 µM) | –
CO[C@@H]1CC[C@]2(C)OC[C@H](C)C3C[C@@H](C)[C@@H](OC(C)=O)[C@H]4C(C[C@H]1C)OC2[C@@H]34 (stereo partly drawn) | inactive | inactive | inactive | inactive | inactive | inactive | inactive | 16 µg/mL (≈ 40.6 µM) | inactive | inactive | inactive | inactive | – | –
CCCC(=O)O[C@]1(C)CCC2[C@@H]3C4OC(C[C@](C)(O)[C@H](O)CC[C@]4(C)OC(=O)[C@@H]2C)[C@@H]31 (stereo partly drawn) [BRIARELLIN Q] | – | – | – | – | – | – | – | 3 µg/mL (≈ 6.84 µM) | – | 43% | – | – | – | –
CCCC(=O)O[C@]1(C)CCC2[C@@H]3C(OC(CC(C)=O)[C@@H]31)[C@](C)(CCC(=O)O)OC(=O)[C@@H]2C (stereo partly drawn) | – | – | – | – | – | – | – | 20 µg/mL (≈ 44.2 µM) | – | – | – | – | – | –
C=C1CC2OC3[C@H]4C(C[C@@H](C)[C@@H](OC(C)=O)[C@@H]24)[C@@H](C)CO[C@@]3(C)CCC1=O (stereo partly drawn) | inactive | inactive | inactive | inactive | inactive | inactive | inactive | 9 µg/mL (≈ 23.9 µM) | inactive | inactive | inactive | inactive | – | 0.25 µg/mL (≈ 0.664 µM)
